The source of these data is PMC11672137, “High-Affinity Lectin Ligands Enable the Detection of Pathogenic Pseudomonas aeruginosa Biofilms: Implications for Diagnostics and Therapy” (JACS Au, 2024).

Assay [1] relates to P. aeruginosa PAO-infected murine lung sections. Put plainly: CLSM of lung sections of infected and uninfected mice. In kind it is in vivo. The settings on record: after i.v. injection. The method, then: For more detailed insights into the localization of divalent LecA ligand 21 and the control Sulfo-Cyanine7, lung sections of infected and uninfected mice were prepared and analyzed by CLSM. […] Signals corresponding to 21 were localized in cellular accumulations around medium-sized blood vessels. Particle-shaped signals and signals clustered into larger dots were observed. […] Possibly, signals detected in lung sections stained with a divalent LecA imaging probe are due to complexes of membrane-bound LecA with 21. These particle-shaped complexes probably represent the divalent imaging probe 21 bound to bacterial cells. Additionally, it is possible that larger dots are attributed to accumulated bacteria in phagocytes such as neutrophils, monocytes, and dendritic cells. However, intracellular detection using the divalent LecA imaging probe 21 has not yet been analyzed and requires further experiments.
Figure 7 Confocal laser scanning microscopy analysis of P. aeruginosa PAO-infected murine lung sections using divalent LecA imaging probe 21. Sections of cryopreserved murine lungs infected with P. aeruginosa were prepared and analyzed by CLSM after intravenous injection of divalent LecA imaging probe 21 (A) or the control Sulfo-Cyanine7 free acid (B). Lung sections of uninfected animals were used as a control after i.v. injection of 21 (C) or control Sulfo-Cyanine7 free acid (D). Cell nuclei are shown in red (DAPI) and green signals correspond to 21 or Sulfo-Cyanine7 free acid, respectively. Green signals were detected only in infected lung sections after injection of divalent LecA ligand 21. Signals were located in cellular accumulations around medium-sized blood vessels. Scale bar for A and B = 100 μm and for C and D = […]. […]
Lung sections and ex vivo imaging of P. aeruginosa
Sections of 8 µm were made from the frozen lung lobes using a cryostat (Leica, Germany). The sections were mounted on adhesive slides, dried overnight at room temperature and mounted with a DAPI containing gel. Confocal imaging was performed on a Leica SP8 […]
system equipped with a super -continuum white light laser (WLL) and a multi - photon laser source (MP) through a water immersion objective (Leica HC FLUOTAR L 25x/1,0 with a motorized correction ring). Images (1024x1024 pixels) were acquired using the MP excitation of 720 nm and emission band ([…]) for detecting DAPI and the WLL at 730 nm excitation with an emission band 748 nm – 848 nm for Cyanine7 employing non-descanned or descanned HyD detectors, respectively. Further image analysis and image overlay was performed in ImageJ2 software.27 […]

A further assay concerns the target T1, LecB (PAO1) (Pseudomonas aeruginosa, UniProt Q9HYN5).
T1 construct: made in house
Put plainly: Direct binding assay based on fluorescence polarization, titration with LecB.

The test system of assay [2] is P. aeruginosa PAO1 biofilm aggregates. Put plainly: In vitro biofilm staining under static conditions (CLSM). Particulars: 10 μM probe. In kind it is cell-based, Pseudomonas aeruginosa. The method, then: The ability of LecA- and LecB-targeting probes to image P. aeruginosa biofilms was evaluated in vitro. P. aeruginosa PAO1, constitutively expressing mCherry from plasmid pMP7605,[56] was cultivated in microtiter plates under shaking conditions to form biofilm aggregates, as reported previously.[43] Fluorescein-carbohydrate conjugates were added to the bacterial culture to reach a final concentration of 10 μM and biofilms were analyzed by confocal laser scanning microscopy (CLSM) under static conditions (Figures 2 and S4). […] To our surprise, the intended negative control xyloside 8 also stained the P. aeruginosa biofilms (Figures 2C and S4). In all cases, the green signal originating from the fluorescein conjugates was not homogeneously spread over the entire structure of the biofilm aggregates, but a certain heterogeneity was observed across biofilm regions as bright spots. Further, the intensity of staining varied between replicates (see the Supporting Information for individual experiments). […] Instead, only a very faint green shadow was detected for 9 indicating its suitability as a negative control. Thus, the observed biofilm staining with imaging probes 2, 3, 6, 7 and also xyloside 8 was carbohydrate dependent and while 2, 3 and 6, 7 are ligands of LecA and LecB, respectively, the molecular mechanism of xyloside 8 remains elusive.
One representative image of stained aggregates is shown. […] Scale bar = 50 μm.
P. aeruginosa PAO1 expressing the red fluorescent protein mCherry (pMP7605)23 was selected for this study. For this, P. aeruginosa PAO1 (DSM 19880, Braunschweig, Germany) was transformed with the mCherry plasmid (pMP7605).23 Bacteria were stored at -80 °C. For experimental use, bacteria were streaked on lysogeny broth (LB) agar (1% tryptone, 1% NaCl, 0,5% yeast extract, 1.3% agar) containing 60 µg/mL gentamicin (Gm) and incubated at 37 °C overnight. For liquid cultures, bacterial colonies were transferred from LB agar to 10 mL LB (1% tryptone, 1% NaCl, 0,5% yeast extract) containing 60 µg/mL Gm and incubated at 37 °C and 180 rpm overnight. For exponential growth, 10 mL of LB containing 60 µg/mL Gm were inoculated with P. aeruginosa PAO1 mCherry (pMP7605)23 using an overnight liquid culture […]
In vitro biofilm staining under static conditions
Biofilm staining experiments were performed in analogy to Wagner et al. with P. aeruginosa PAO1 pMP7605 (Figure S4).23,24 Bacterial overnight cultures were inoculated from single colonies in 5 mL LB supplemented with gentamicin (120 µg/mL) and grown at 37 °C and 180 rpm. The bacterial overnight cultures were then diluted to OD600 of 0.02 with LB and 500 µL of culture per well were transferred to 24-well plate (24CG, Art. No. 5231 or 24FC, Art. No. 3231). The biofilm was grown under shaking conditions (180 rpm) at 37 °C for 20–24 h. Biofilm aggregates were visualized using a confocal laser scanning microscope (Leica TCS Sp8 CLSM) using a 25× numerical-aperture water objective. Z-stacks (463 x 463 μm) were recorded every 2 μm for mCherry (ex.: 561 nm, red) and for fluorescein containing imaging compounds (ex.: 488 nm, green). […]
Maximum Intensity Projections (contrast range automatically adjusted by Imaris). Only one staining experiment was carried out for imaging probes 4 and S26, all other fluorescein conjugates were analyzed in at least three independent experiments.

For another assay, the target named is T2, LecA (Pseudomonas aeruginosa, UniProt Q05097).
T2 construct: made in house
Put plainly: Direct binding assay based on fluorescence polarization, titration with LecA. The settings on record: negative controls.

The subject of assay [3] is P. aeruginosa PAO (DSM 1707) lung infection. Put plainly: Optical in vivo imaging and ex situ organ analysis in acute P. aeruginosa airway infection model. Also noted: species or system mice. As for the experimental part:
Encouraged by the high affinity of the imaging probes and their ability to stain P. aeruginosa biofilms in vitro, we further investigated the compounds in vivo using an acute P. aeruginosa airway infection model in mice. Intratracheal administration of P. aeruginosa PAO (DSM 1707) results in a local infection that is mainly restricted to the lungs. With the infection dose of 2 × 10^6 cfu/50 μL chosen here, the number of bacteria peaks at 6 h after infection before the host immune system clears the bacteria.[70]
Then, imaging probes, divalent LecA-targeting probe 21, LecB-targeting probe 22 and the control sulfo-Cy7 (free acid), were administered intravenously to the tail vein 2 h post infection. […] This accumulation in the lungs was then confirmed by a subsequent ex vivo analysis of the organs.
Figure 6 Optical in vivo imaging in mice and ex situ analysis of organs with P. aeruginosa PAO acute lung infection. In vivo imaging of mice with P. aeruginosa intratracheal infection (right) or uninfected control mice (left) after intravenous administration of imaging probes 2 h post infection: (A) 50 nmol/20 g divalent LecA probe 21 or (B) 100 nmol/20 g LecB probe 22. Then, explanted lungs were analyzed for fluorescence intensity, shown as a false color scale in (C) divalent LecA probe 21 (left: uninfected, right: infected) and (D) LecB probe 22 (left: uninfected; middle: uninfected control without dye; right: infected). (E) Quantification of the average radiant efficiency of the divalent LecA ligand 21 and the control sulfo-Cy7 free acid in the lungs of uninfected and infected mice. Duplicate data points and the mean are depicted. (F) Average radiant efficiency was quantified for the LecB imaging probe 22 in lungs of infected and uninfected mice. In addition, (G) further mouse organs were explanted after i.v. injection of 21 (50 nmol/20 g) or control sulfo-Cy7 free acid (50 nmol/20 g) and imaged. Organs of uninfected (left), infected (right) mice, and uninfected mice without any dye (upper middle on the sulfo-Cy7 free acid rows) were compared. Fluorescence intensities are shown as false color pictures. […]
Lung infection model and in vivo imaging of P. aeruginosa
C57BL/6J and albino (Tyrc2J) C57BL/6 mice were bred and housed at the Central Animal Facility, Hannover Medical School, Germany. Animal experiments were performed with permission number: 33.9-42502-04-16/2072 from the Lower Saxony State Office for Consumer Protection and Food Safety (LAVES), Germany. Mice were anesthetized with 3% isoflurane (CP Pharma) and infected intratracheally with 2x10^6 cfu/50 µL of P. aeruginosa PAO (DSM1707, Braunschweig, Germany) as described previously.26
50 – 100 nmol sulfo-Cyanine7-compound (divalent LecA probe 21; LecB probe 22; control sulfoCy7 free acid, CAS no.: 2104632-30-4, Lumiprobe; control sulfoCy7 azide, 20, Lumiprobe) per 20 g mouse was injected intravenously 2 h after infection. Optical imaging was performed 4 – 7 h after compound administration. Mice were anesthetized with 3% isoflurane […]
an in vivo imaging system (IVIS SpectrumCT, PerkinElmer). Subsequently mice were euthanized and organs were imaged (675/760 nm) ex situ individually. To enhance Cyanine7 specific fluorescent signal spectral unmixing was performed on in vivo images using LivingImage 4.7 (PerkinElmer). […]

T1 sequence (Q9HYN5 entry or part of it): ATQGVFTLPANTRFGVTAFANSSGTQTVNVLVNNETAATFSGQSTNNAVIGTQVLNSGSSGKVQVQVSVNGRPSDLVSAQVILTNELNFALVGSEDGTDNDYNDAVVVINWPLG
T2 sequence (Q05097 whole entry): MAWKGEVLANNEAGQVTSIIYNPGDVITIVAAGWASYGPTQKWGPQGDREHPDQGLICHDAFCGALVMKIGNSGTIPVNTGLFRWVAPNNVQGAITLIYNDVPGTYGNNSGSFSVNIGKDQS
Description for LecA: The binding affinities of imaging probes 2–4 for LecA were determined using a direct binding assay based on fluorescence polarization (FP).[47]
(A, C) Monovalent LecA imaging probes 2–4 based on phenyl β-D-galactoside (1) were titrated with LecA. […] (E) Xyloside-fluorescein conjugate (8) and azido fluorescein (9) served as negative controls in titrations with LecA and LecB, respectively. Averages and standard deviations were determined from at least three independent titrations of technical triplicates each.
(§1) Direct binding affinity determination of LecA and LecB imaging probes was performed with direct titration of protein and imaging probes in TBS/Ca2+ buffer. Protein dilution series was prepared in 96 well plates and 10 µL of each dilution in triplicates were mixed with 10 µL of fluorescent compound (20 nM) in 384-well microtiter plates (Greiner Bio-One, Germany, cat no 781900). The plates were centrifuged (1 min, 500 g), sealed and incubated for 2 h in dark wet chamber under gentle shaking. Fluorescence was measured on a PheraStar FS plate reader (BMG Labtech GmbH, Germany) with excitation filters at 485 nm and emission filters at 535 nm. The data were analysed with MARS Data Analysis Software (BMG Labtech GmbH, Germany) to calculate Kd values.
Description for LecB (PAO1): Averages and standard deviations were determined from at least three independent titrations of technical triplicates each.
as §1

With `C[N+]1=C(C=CC2=CC(=CC=C3N(CCCCCC(=O)O)c4ccc(S(=O)(=O)[O-])cc4C3(C)C)CCC2)C(C)(C)c2cc(S(=O)(=O)[O-])ccc21.[Na+]` [Sulfo-Cyanine7, reference compound], in assay [1], the “Cyanine7 signals in lung sections, infected mice” value was “no signals were detected” and the “Cyanine7 signals in lung sections, uninfected mice” value is reported as “no signals were detected”.

`C[C@@H]1O[C@H](CNS(=O)(=O)c2ccc(-c3cn(CCOCCOCCOCCNC(=S)Nc4ccc5c(c4)C(=O)OC54c5ccc(O)cc5Oc5cc(O)ccc54)nn3)s2)[C@@H](O)[C@H](O)[C@@H]1O` [compound 6]: the dissociation constant (Kd) on LecB (PAO1) came out at 1.65 ± 0.14 µM. Further, in assay [2], the “Staining of biofilm aggregates” value was “accumulated at the biofilm aggregates, although with weaker staining”.

As for `C[C@@H]1O[C@H](CNS(=O)(=O)c2ccc(OCc3cn(CCOCCOCCOCCNC(=S)Nc4ccc5c(c4)C(=O)OC54c5ccc(O)cc5Oc5cc(O)ccc54)nn3)cc2)[C@@H](O)[C@H](O)[C@@H]1O` [compound 7], the equilibrium dissociation constant (Kd) on LecB (PAO1) amounted to 0.84 ± 0.11 µM. For the same molecule, the “Staining of biofilm aggregates” value in assay [2] was “accumulated at the biofilm aggregates, although with weaker staining”.

As to `O=C1OC2(c3ccc(O)cc3Oc3cc(O)ccc32)c2ccc(NC(=S)NCCOCCOCCOCCn3cc(CNc4ccc(S[C@@H]5OC[C@@H](O)[C@H](O)[C@H]5O)cc4)nn3)cc21` [compound 8], the “Binding to LecB in direct FP titration” value at LecB (PAO1) (negative control) is recorded as “inability to bind”. Besides, the “Staining of biofilm aggregates” value in assay [2] was “also stained”. On LecA, the “Binding to LecA in direct FP titration” value was “inability to bind”.

Consider `CN1/C(=C/C=C2C=C(/C=C/C3=[N+](CCCCCC(=O)NCCCn4cc(CCN(Cc5ccc(NC(=O)CCc6ccc(O[C@@H]7O[C@H](CO)[C@H](O)[C@H](O)[C@H]7O)cc6)cc5)Cc5ccc(NC(=O)CCc6ccc(O[C@@H]7O[C@H](CO)[C@H](O)[C@H](O)[C@H]7O)cc6)cc5)nn4)c4ccc(S(=O)(=O)[O-])cc4C3(C)C)CCC/2)C(C)(C)c2cc(S(=O)(=O)O)ccc21` [compound 21], for which the “Average fluorescence radiant efficiency of explanted lungs” value in assay [3] (ex vivo analysis of organs, infected vs uninfected mice) is on record as “elevated compared with uninfected mice”. The “Cyanine7 signal in lung area, optical in vivo imaging” value in assay [3] (i.v. 2 h post infection, infected vs uninfected mice, 21 50 nmol/20 g, 22 100 nmol/20 g) was “elevated Cyanine7 signals in the area of the lung of infected mice compared to uninfected mice”. The “Fluorescence ex vivo in kidneys” value in assay [3] (infected vs uninfected animals) is recorded as “moderately increased signals compared to uninfected animals”. In addition, the “Fluorescence ex vivo in lungs of uninfected animals compared to control sulfo-Cyanine7 (free acid)” value in assay [3] (uninfected mice, ex vivo quantification) was “a certain accumulation in the lungs of uninfected animals”. In assay [1], the “Cyanine7 signals in lung sections, infected mice” value is “Cyanine7 signals were exemplarily visible” and the “Cyanine7 signals in lung sections, uninfected mice” value was “no signals were detected”.
